The values that follow come from patent US11149277B2, “Method of producing enriched exosomes” (National Health Research Institutes, priority 2016, dated 2021).

Molecules are shown by their SMILES.

For assay [1], the system named is NAMECs. Kind of assay: Western blot of exosome markers and proteins in CM-P4 fractions of NAMECs. The format is cell-based, human. The text has this: FIG. 2 includes graphs and blots showing analyses of GW-treated NAMEC P4 fractions. CM-P4 GW-treated NAMECs were collected and subjected to (A) NanoSight Nanoparticle Tracking Analysis (NTA) and (B) Dynamic Light Scattering/Zeta Potential Analysis (DLS). […] D: particle diameter. RN: relative number. (C) is a blot showing the amounts of the CD44 stem cell marker and the CD81, CD9, TSG101, Alix, HSP70 and GAPDH exosome markers measured in the indicated CM-P4 fractions and cell lysates. The culture media and cell lysates were collected from the same number of NAMECs treated with vehicle (Crl), GW627368X (GW) or PGE2 (1 μM) for 4 days. (D) is a blot showing the amounts of the GAPDH and CD81 exosome markers and the CD44 stem cell marker measured in the CM-P4 fraction of NAMECs (CD44hi/CD24− stem cells) or CD44lo/CD24+ non-stem cells (HMLE cells) treated with vehicle (Crl) or GW for 2 days. 1×: P4 exosome fraction released by 1×10^6 cells; 2×: P4 exosome fraction released by 2×10^6 cells. […] (E) is a blot showing that the CD44 stem cell marker and GAPDH and CD81 exosome markers were measured in the indicated P4 conditioned medium fractions of NAMECs treated with vehicle (Crl), GW627368X (GW, 1 μg/ml), AH23848 (EP4 antagonist; 0.4, 2, 4 μg/ml), or AH6809 (EP1/2/3 antagonist; 0.8, 4, 8 μg/ml). (F) is a blot showing the HSP70, GAPDH and CD81 exosome markers measured in the indicated CM-P4 of NAMECs, NAMEC-shEP4-1 cells, and NAMEC-shEP4-2 cells treated with vehicle or with doxycycline (Dox, 2 μg/ml) (top panel). Doxyclycline (Dox) induced the production EP4 shRNA in NAMEC-shEP4 cells (bottom panel).
The P4 exosome fractions and cell lysates were collected from NAMECs treated with vehicle (Crl), GW627368X (GW), or PGE2 for 4 days. 1×: P4 exosome fraction released by 2.5×10^5 cells; 5×: P4 exosome fraction released by 12.5×10^5 cells. Hg: Hg-integrin β1, Lg: Lg-integrin β1, H: H-integrin α6, L: L-integrin α6, pg: pg-LRP6, g: g-LRP6, Ng: Ng-LRP6.
The isolated human mammary epithelial stem cells (NAMECs) were cultured in mammary epithelial cell basal medium (250 ml MCDB-170, 250 ml DMEM-F12, 1.2 g sodium bicarbonate, 2.5 μg EGF, 0.25 mg Hydrocortisone, 2.5 mg insulin, 35 mg BPE) with or without containing EP4 antagonist, i.e., GW627368X (GW) at 1 μg/ml, or AH23848 (AH) at 4 μg/ml, for 4 days. The culture medium was supplied with 0.5 μg/ml of GW or 2 μg/ml of AH23848 at the third day of the culturing period. For the induction of EP4 antagonist-induced exosomes from mouse mammary epithelial cells, cells were cultured in a medium containing 10 μg/ml of GW for 4 days.
The culture media were centrifuged at 300 g for 5 min to remove cells (P1), at 2,000 g for 20 min (P2), then at 10,000 g for 30 min (P3) all at 4° C. Dead cells and cell debris were removed at 300 g (P1) and 1200 g (P2). […]

For assay [2], the system named is NAMECs. Kind of assay: RT2 Profiler PCR arrays of signaling pathway target genes. The format is cell-based, human. The conditions noted are these: 48-hour treatment. How it is done: The percentages of the target genes which, relative to NAMEC control cells, were inhibited, unchanged, or activated in GW627368X-treated NAMECs are presented in the plot.
To evaluate whether there is selective release of components of alternative signaling pathways, the activation and suppression of signaling pathways in GW-treated NAMECs were analyzed using RT2 Profiler PCR arrays. […] The decrease of p-Akt in GW-treated NAMECs and the enrichment of p-Akt in GW induced exosomes was reflected in inactivation of PI3K/Akt-signaling. Thus, EP4 antagonists are likely to interfere with the Akt-dependent signaling pathway by decreasing cellular p-Akt via exosome release.

For another assay, the system named is NAMEC-R cells. Kind of assay: NTA of EV release from Ras-transformed NAMEC-R cells. The format is cell-based. Conditions: CM-P4, 4 days; GW 1 μg/ml; SQ 120 and 240 nM. How it is done:
Vesicles in the P4 fractions were counted using NTA. Data are means±SEM (n=6). ***P≤0.001; (B) The Alix, TSG101, CD63, CD81 and GAPDH exosome markers were measured in the CM-P4 fractions of NAMEC-R cells treated with vehicle (Crl), GW627368X (GW, 1 μg/ml), SQ 29,548 (SQ120/SQ240; 120 nM and 240 nM); (C) The mesenchymal marker N-cadherin, CSC markers and exosome markers were analyzed in the conditioned medium P4 fraction derived from equal numbers of vehicle-treated NAMEC-R cells (Crl), GW-treated NAMEC-R cells (GW, 1 μg/ml GW627368X for 4 days) and SQ 29,548-treated NAMEC-R cells (SQ120/SQ240; 120 nM and 240 nM for 4 days). The longer GAPDH(L) and CD81(L) exposures show the low, but detectable, presence of GAPDH and CD81 in the conditioned medium P4 fraction of vehicle-treated NAMEC-R cells.
We further investigated whether EP4 antagonism and TP receptor antagonism (as GW has partial affinity to the human TP receptor) affected EV release from transformed mammary epithelial stem cells. Four-day conditioned media of vehicle, GW-, or SQ (a TP antagonist)-treated Ras-transformed NAMEC mammary stem cells (NAMEC-R) were collected and subjected to differential ultracentrifugation to isolate EVs released by the cells. The numbers of vesicles in CM-P4 fractions were determined using NTA (FIG. 20, A). EP4 antagonism elicited release of ˜5000 vesicles per NAMEC-R cell. […]

Turning to `CCOc1c2c(c(OCC)c3ccccc13)C(=O)N(c1ccc(CC(=O)NS(=O)(=O)c3ccccc3)cc1)C2` [GW627368X], in the assay on NAMECs [1] (4 days treatment), the “amount of total exosomal proteins released vs vehicle or PGE2” value is listed as “much greater”. In the assay on NAMECs [1] (AH23848 0.4, 2, 4 μg/ml, AH6809 0.8, 4, 8 μg/ml, GW 1 μg/ml), the “exosome release by exosome markers in CM-P4 fractions” value is “Large amounts”. The “signaling pathways most inhibited” value with NAMECs [2] is “PI3K/Akt, TGF-β, Wnt and androgen pathways”. In addition, in the assay on NAMEC-R cells, the “vesicles released per cell” value is about 5000 vesicles per cell.
